Where two headings read alike, the source gives them in different places.
How the values were obtained:
[1] = system: SARS-CoV-2 "NRC-03-nhCoV" virus; test: Inhibitory concentration 50 (IC50) determination, reduction of virus-induced cytopathic effect in Vero-E6 cells; type: cell-based; details: for Selectivity Index (CC50/IC50): CC50 on Vero E6 / IC50 against NRC-03-nhCoV; for IC50: Severe acute respiratory syndrome coronavirus 2, Vero C1008, 72 h, unit not given in Table 4 and Figure 6, Figure 4 and text print μM
Method: The IC50 values for the tested compounds were determined as previously described, with minor modifications. Briefly, in 96-well tissue culture plates, 2.4 × 10^4 Vero-E6 cells were distributed in each well and incubated overnight at a humidified 37°C incubator under 5% CO2 condition. The cell monolayers were then washed once with 1× PBS. An aliquot of the SARS-CoV-2 “NRC-03-nhCoV” virus containing 100 TCID50 was incubated with serial diluted compounds and kept at 37 °C for 1 h. The Vero-E6 cells were treated with virus/compound mix and co-incubated at 37 °C in a total volume of 200 µL per well. Untreated cells infected with virus represented the virus control; however, cells that were not treated and not infected were the cell control. Following incubation at 37 °C in 5% CO2 incubator for 72 h, the cells were fixed with 100 μL of 10% paraformaldehyde for 20 min and stained with 0.5% crystal violet in distilled water for 15 min at RT. The crystal violet dye was then dissolved using 100 μL of absolute methanol per well and the optical density of the color was measured at 570 nm using the Anthos Zenyth 200 rt plate reader (Anthos Labtec Instruments, Heerhugowaard, the Netherlands).

[2] = Cytotoxicity (CC50) determination, crystal violet assay; type: cell-based; details: African green monkey, Vero E6 cells, Table 4 prints no unit, Figure 4 prints μM, read-out: CC50 (half-maximal cytotoxic concentration)
Method: To assess the half maximal cytotoxic concentration (CC50), stock solutions of the test compounds were prepared in 10% DMSO in ddH2O and diluted further to the working solutions with DMEM. The cytotoxic activity of the extracts was tested in VERO-E6 cells by using crystal violet assay as previously described with minor modifications. Briefly, the cells were seeded in 96-well plates (100 µL/well at a density of 3 × 10^5 cells/mL) and incubated for 24 h at 37 °C in a humidified 5% CO2 incubator. After 24 h, cells were treated with various concentrations of the tested compounds in triplicates. Seventy two hours later, the supernatant was discarded, and cell monolayers were fixed with 10% formaldehyde for 1 h at room temperature (RT). The fixed monolayers were then dried and stained with 50 µL of 0.1% crystal violet for 20 min on a bench rocker at RT. The monolayers were then washed, dried and the crystal violet dye in each well was then dissolved with 200 µL of methanol for 20 min on a bench rocker at RT. The absorbance of crystal violet solutions was measured at λmax 570 nm as a reference wavelength using a multi-well plate reader.

[3] = against NRC-03-nhCoV in Vero E6, 72 h, CPE reduction, crystal violet, read-out: IC50 (half-maximal inhibitory concentration)

| Compound | Selectivity Index (CC50/IC50) [1] | IC50 [1, 3] | CC50 at 72 h [2] | IC50 ([1]; read-out: IC50 (half-maximal inhibitory concentration), against NRC-03-nhCoV in Vero E6, 72 h, CPE reduction, crystal violet) |
| --- | --- | --- | --- | --- |
| CC1(C)CC[C@]2(C(=O)O)CC[C@]3(C)C(=CC[C@@H]4[C@@]5(C)CC[C@H](O)C(C)(C)[C@@H]5CC[C@]43C)[C@@H]2C1 [Compound 1, Oleanolic acid] | 0.39 | 476 µM | 190 µM | – |
| CC1(C)CC[C@]2(C(=O)O)CC[C@]3(C)C(=CC[C@@H]4[C@@]5(C)C[C@@H](O)[C@H](O)C(C)(C)[C@@H]5CC[C@]43C)[C@@H]2C1 [Compound 2, Maslinic acid] | 0.97 | 99.9 µM | 97.3 µM | – |
| C#CCOC(=O)[C@]12CCC(C)(C)CC1C1=CCC3[C@@]4(C)CC[C@H](O)C(C)(C)C4CC[C@@]3(C)[C@]1(C)CC2 (stereo partly drawn) [Compound 3, Propargyl-(3β)-3-hydroxyolean-12-en-28-oate] | 2.32 | 42 µM | 97.4 µM | – |
| C#CCOC(=O)[C@]12CCC(C)(C)CC1C1=CCC3[C@@]4(C)C[C@@H](O)[C@H](O)C(C)(C)C4CC[C@@]3(C)[C@]1(C)CC2 (stereo partly drawn) [Compound 4, Propargyl-(2α,3β)-2,3-dihydroxyolean-12-en-28-oate] | 0.67 | 236 µM | 157 µM | – |
| C#CCOC(=O)C12CCC(C)(C)CC1C1=CCC3C4(C)CC(OCC#C)C(O)C(C)(C)C4CCC3(C)C1(C)CC2 (stereo not drawn) [Compound 5, Propargyl-(2α)-2-(propargyloxy)-(3β)-3-hydroxy-olean-12-en-28-oate] | 1.06 | 85.2 µM | 90.6 µM | – |
| C#CCOC(=O)C12CCC(C)(C)CC1C1=CCC3C4(C)CC(O)C(OCC#C)C(C)(C)C4CCC3(C)C1(C)CC2 (stereo not drawn) [Compound 6, Propargyl-(3α)-3-(propargyloxy)-(2β)-2-hydroxy-olean-12-en-28-oate] | 1.55 | 135 µM | 209 µM | – |
| C#CCOC(=O)C12CCC(C)(C)CC1C1=CCC3C4(C)CC(OCC#C)C(OCC#C)C(C)(C)C4CCC3(C)C1(C)CC2 (stereo not drawn) [Compound 7, Propargyl-(2α,3β)-2,3-bis(propargyloxy)-olean-12-en-28-oate] | 0.90 | 108 µM | 97.4 µM | – |
| Cc1cccc(-n2nncc2COC(=O)C23CCC(C)(C)CC2C2=CCC4C5(C)CCC(O)C(C)(C)C5CCC4(C)C2(C)CC3)c1 (stereo not drawn) [Compound 8, (1-(3-methylphenyl)-1H-1,2,3-triazol-5-yl)methyl-(3β)-3-hydroxyolean-12-en-28-oate] | 0.98 | 174 µM | 170 µM | – |
| Cc1cccc(-n2cc(COC(=O)C34CCC(C)(C)CC3C3=CCC5C6(C)CCC(O)C(C)(C)C6CCC5(C)C3(C)CC4)nn2)c1 (stereo not drawn) [Compound 10, (1-(3-methylphenyl)-1H-1,2,3-triazol-4-yl)methyl-(3β)-3-hydroxyolean-12-en-28-oate] | 3.68 | 75.3 µM | 277 µM | – |
| CC1(C)CCC2(C(=O)OCc3cn(-c4ccccc4)nn3)CCC3(C)C(=CCC4C5(C)CC(O)C(O)C(C)(C)C5CCC43C)C2C1 (stereo not drawn) [Compound 11, (1-Phenyl-1H-1,2,3-triazol-4-yl)methyl-(2α,3β)-2,3-dihydroxyolean-12-en-28-oate] | 1.62 | 135 µM | 218 µM | – |
| CC1(C)CC[C@]2(C(=O)OCc3cn(-c4ccc(Cl)cc4)nn3)CC[C@]3(C)C(=CCC4[C@@]5(C)C[C@@H](OCc6cn(-c7ccc(Cl)cc7)nn6)[C@H](O)C(C)(C)C5CC[C@]43C)C2C1 (stereo partly drawn) [Compound 12, (1-(4-Chlorophenyl)-1H-1,2,3-triazol-4-yl)methyl-(2α,3β)-2-((1-(4-chlorophenyl)-1H-1,2,3-triazol-4-yl)methoxy)-3-hydroxyolean-12-en-28-oate] | 4.42 | – | 514 µM | – |
| COc1ccc(-n2cc(COC(=O)[C@]34CCC(C)(C)CC3C3=CCC5[C@@]6(C)C[C@@H](O)[C@H](OCc7cn(-c8ccc(OC)cc8)nn7)C(C)(C)C6CC[C@@]5(C)[C@]3(C)CC4)nn2)cc1 (stereo partly drawn) [Compound 13, (1-(4-Methoxyphenyl)-1H-1,2,3-triazol-4-yl)methyl-(2α,3β)-2-hydroxy-3-((1-(4-methoxyphenyl)-1H-1,2,3-triazol-4-yl)methoxy)-olean-12-en-28-oate] | 2.24 | – | 356 µM | – |
| COc1ccc(-n2cc(COC(=O)[C@]34CCC(C)(C)CC3C3=CCC5[C@@]6(C)C[C@@H](OCc7cn(-c8ccc(OC)cc8)nn7)[C@H](OCc7cn(-c8ccc(OC)cc8)nn7)C(C)(C)C6CC[C@@]5(C)[C@]3(C)CC4)nn2)cc1 (stereo partly drawn) [Compound 14, (1-(4-Methoxyphenyl)-1H-1,2,3-triazol-4-yl)methyl-(2α,3β)-2,3-bis((1-(4-methoxyphenyl)-1H-1,2,3-triazol-4-yl)methoxy)-olean-12-en-28-oate] | 2.96 | – | 405 µM | – |
| COc1ccc(-c2cc(COC(=O)C34CCC(C)(C)CC3C3=CCC5C6(C)CCC(O)C(C)(C)C6CCC5(C)C3(C)CC4)on2)cc1 (stereo not drawn) [Compound 15, (3-(4-methoxyphenyl)isoxazol-5-yl) methyl-(3β)-3-hydroxyolean-12-en-28-oate] | – | 523 µM | – | – |
| COc1ccc(-c2cc(COC(=O)C34CCC(C)(C)CC3C3=CCC5C6(C)CC(O)C(O)C(C)(C)C6CCC5(C)C3(C)CC4)on2)cc1 (stereo not drawn) [Compound 16, (3-(4-methoxyphenyl)isoxazol-5-yl) methyl-(2α,3β)-2,3-dihydroxyolean-12-en-28-oate] | 1.48 | – | 324 µM | 219 µM |
